A short description of the data set: lipophilicity (Log P). It counts as physicochemical. From the text: One possible reason for the self emulsifying behavior of the Capmul-free formulation is that tipranavir which is a highly lipophilic compound (Log P=6) once dissolved serves as a lipid core in this pre-concentrated microemulsion system. However, this rationale is only a theory and it was certainly not available to serve as guidance and motivation to us when we set about to solve the instability problem posed by the Capmul-containing formulation.

Broadly, the logP is a log measure of how a compound divides between an organic and an aqueous phase. A higher logP goes with higher lipophilicity. `CCC[C@@]1(CCc2ccccc2)CC(O)=C([C@H](CC)c2cccc(NS(=O)(=O)c3ccc(C(F)(F)F)cn3)c2)C(=O)O1` [tipranavir, N-[3-[(1R)-1-[(6R)-5,6-dihydro-4-hydroxy-2-oxo-6-(2-phenylethyl)-6-propyl-2H-pyran-3-yl]propyl]phenyl]-5-(trifluoromethyl)-2-pyridinesulfonamide] showed a lipophilicity (logP) of 6.

For the origin of these results see patent US20100152244A1, “SELF-EMULSIFYING FORMULATION OF TIPRANAVIR FOR ORAL ADMINISTRATION” (BOEHRINGER INGELHEIM INTERNATIONAL GMBH, priority 2008, published 2010).
